In patent publication US11331364B2, “Use for JNK inhibitor molecules for treatment of various diseases” (Xigen Inflammation Ltd., priority 2014, dated 2022):
Square brackets hold non-standard residues; d marks the D form. Peptide text beside a SMILES is read from it.

What was measured:
[1] = test system: experimental renal ischemia/reperfusion in rats; assay: Renal ischemia/reperfusion (clamping both renal pedicles 40 min), Wistar rats; assay type: in vivo, rat; details: 2 mg/kg IV one hour after clamping; 24 h following ischemia
Description: Renal ischemia will be induced by clamping both renal pedicles with atraumatic clamp (induction of necropathy). One unique dose of the JNK inhibitor of SEQ ID NO: 172 (2000 μg/kg) will be administered intravenously (IV) into the tail vein on Day 0, one hour after clamping period (after reperfusion) both renal pedicles with atraumatic clamp. The administration volume will be 2 ml/kg. Heparin (5000 IU/kg) will be administered intraperitoneally 1 hour before clamping.
Each day, the general behavior and the appearance of all animals is observed. […] For the evaluation of the renal function, serum creatinine ([…]) or urea concentrations (mmol/mL) are measured with the appropriate kits (Bayer Healthcare AG, Leverkusen, Germany). […]
Twenty-six (26) male Wistar rats (age 5-6 weeks) were used in this study (divided into 2 groups of 10 rats and 1 group of 6 rats). […] The health of the animals was monitored (moribund animals, abnormal important loss of weight, major intolerance of the substance, etc. . . . ). […]
For evaluation of renal function, blood was collected from the tail vein at 24 hours after reperfusion. Serum creatinine ([…]) and urea concentrations (mmol/mL) were measured using appropriate kits (Bayer Healthcare AG, Leverkusen, Germany). […]

[2] = test system: Primary Rat Whole Blood Cells; assay: LPS-induced TNFα release in rat whole blood; assay type: cell-based; details: LPS 3 ng/ml; 1, 3, 10 μM
Description: Given are the results for the control, 1 μM of SEQ ID NO: 172, 3 μM of SEQ ID NO: 172, and 10 μM of SEQ ID NO: 172 at different levels of LPS (ng/ml).
Whole blood is collected from anesthetized rat or human healthy volunteers using a venipuncture connected to a pre-labeled vacuum tube containing sodium citrate. Tubes are gently mixed by inversion 7-8 times; and are then kept at RT until stimulation. JNK inhibitor of SEQ ID NO: 172 is prepared 6 times concentrated in PBS, and 30 μl/well of mix is added into 96-well plate. Whole blood is diluted by 1:2 in PBS and 120 μl of diluted blood is added in each well where either PBS alone or JNK inhibitor of SEQ ID NO: 172 has been previously added. Whole blood is incubated at 37° C.; 85 rpm (Stuart Orbital incubator SI500) for 60 min. Activators (LPS) are the prepared, 30 μl/well of LPS, 6 times concentrated. After 60 min incubation, LPS is added to the blood, blood is mixed by pipetting up and down, and then kept for 4 h under agitation (85 rpm), at 37° C. After the 4 h incubation, the plates are centrifuged at about 770 g, 4° C. for 15 min in a pre-cooled centrifuge. […] Cytokine (IL-6, IL-2, IFNγ and TNFα) were then measured using standard Elisa kits (e.g. from R&D Systems: DuoSet Elisas; or from BD Biosciences: BD Opteia Set Elisa). Results are expressed as pg/ml of supernatant of the measured cytokine.

In the case of `CC(C)C[C@H](NC(=O)[C@H](CC(N)=O)NC(=O)[C@H](CC(C)C)NC(=O)[C@@H](NC(=O)[C@@H](C)NC(=O)[C@@H]1CCCN1C(=O)[C@H](CCCNC(=N)N)NC(=O)[C@@H](CCCCN)NC(=O)[C@@H]1CCCN1C(=O)[C@H](CCCNC(=N)N)NC(=O)[C@@H](CCCNC(=N)N)NC(=O)[C@H](CCCNC(=N)N)NC(=O)[C@H](CCCNC(=N)N)NC(=O)[C@H](CCC(N)=O)NC(=O)[C@@H](CCCNC(=N)N)NC(=O)[C@H](CCCNC(=N)N)NC(=O)[C@H](CCCCN)NC(=O)[C@H](CCCCN)NC(=O)[C@H](N)CCCNC(=N)N)[C@@H](C)O)C(=O)N[C@H](Cc1ccccc1)C(N)=O` [SEQ ID NO: 172, rKKRrQRRrRPkRPaTLNLf] (H-[dR]KKR[dR]QRR[dR]RP[dK]RP[dA]TLNL[dF]-NH2; N-terminus assumed), the “serum creatinine relative to untreated ischemic rats” value [1] is reported as “lower serum creatinine”, the “urea relative to untreated ischemic rats” value [1] is reported as “lower urea” and the “LPS-induced TNFα release” value [2] is reported as “blocks LPS-induced TNFα release”.
